Reference: patent publication US20140303198A1, “AGENT FOR INHIBITING EXPRESSION OF NPC1L1 AND/OR LIPG MRNA AND AGENT FOR PREVENTING AND/OR TREATING OBESITY” (KOWA COMPANY, LTD., priority 2011, published 2014)

How the values were obtained:
LIPG mRNA = experiment: DNA microarray gene expression profile in HepG2 cells (Test Example 2), LIPG; type: cell-based, human; conditions: 24 hours, treated vs untreated cells
Procedure: (§1) A compound of a test compound group was added to cells of a human hepatocellular carcinoma cell line HepG2, and the cells were then cultured for 24 hours. Thereafter, the gene expression profile was measured using the DNA microarray of Agilent. Specifically, the HepG2 cells were inoculated at a concentration of 2×10^5 cells/well into a 24-well plate, and were then cultured overnight. Thereafter, Compound 2 was dissolved in dimethyl sulfoxide (DMSO) to give concentrations of 1 μM and 10 μM, whereas Anacetrapib was dissolved in DMSO to give a concentration of […]. The thus prepared solution was added to the culture fluid in an amount of 1/1000-fold of the culture fluid. The cells were cultured at 37° C. for 24 hours in a CO2 incubator. Thereafter, 500 μL of ISOGEN (Nippon Gene Co., Ltd., Catalog No. 31-02501) was added to the culture, and total RNA was then extracted. Cy3-labeled cRNA was synthesized from 200 ng of the RNA using Low Input Quick Amp Labeling Kit (Agilent, Catalog No. 5190-2308). The synthesized Cy3-labeled cRNA was hybridized to Whole Human Genome (4×44K) (Agilent, Catalog No. G4110F), using GE Hybridization Buffer HI-RPM (Agilent, Catalog No. 5190-0403). After completion of the hybridization, the DNA microarray was washed with Gene Expression Wash Buffer (Agilent, Catalog No. 5188-5327), and data were then scanned with a scanner (Agilent).
(§2) The analysis was carried out using GeneSpring (Agilent), and the change rate of the expression level of each gene was calculated.
(§3) (Change rate)=(Expression level of each gene in cells treated with compound)[…](Expression level of each gene in cells untreated with compound)

NPC1L1 mRNA = experiment: DNA microarray gene expression profile in HepG2 cells (Test Example 2), NPC1L1; type: cell-based, human; conditions: 24 hours, treated vs untreated cells
Procedure: as §1, §2, §3

SMILES | Change rate (fold) of LIPG expression level (LIPG mRNA; 1 μM) | Change rate (fold) of LIPG expression level (LIPG mRNA; 10 μM) | Change rate (fold) of NPC1L1 expression level (NPC1L1 mRNA; 1 μM) | Change rate (fold) of NPC1L1 expression level (NPC1L1 mRNA; 10 μM)
CCN(C[C@H]1CC[C@H](CC(=O)O)CC1)c1ccc(C(F)(F)F)cc1CN(c1ncc(OCCS(C)(=O)=O)cn1)[C@@H](C)c1cc(C(F)(F)F)cc(C(F)(F)F)c1 [Compound 2, (S)-(−)-trans-{4-[({2-[({1-[3,5-bis(trifluoromethyl)phenyl]ethyl}{5-[2-(methylsulfonyl)ethoxy]pyrimidin-2-yl}amino)methyl]-4-(trifluoromethyl)phenyl}(ethyl)amino)methyl]cyclohexyl}ac etic acid] | −2.5 fold | −6.2 fold | −2.3 fold | −3.1 fold
COc1cc(F)c(C(C)C)cc1-c1ccc(C(F)(F)F)cc1CN1C(=O)O[C@H](c2cc(C(F)(F)F)cc(C(F)(F)F)c2)[C@@H]1C [Anacetrapib, (4S,5R)-5-[3,5-bis(trifluoromethyl)phenyl]-3-((4′-fluoro-5′-isopropyl-2′-methoxy-4-(trifluoromethyl)-[1,1′-biphenyl]-2-yl)methyl)-4-methyloxazolidin-2-one, reference compound] | – | −1.9 fold | – | −1.5 fold
